Measured values: patent US20130269045A1, “HB-EGF DEFICIENT TRANSGENIC ANIMAL AND PRODUCTION METHOD THEREOF” (Nagasaki University, priority 2012, published 2013)

What was measured:
Format in all cases: in vivo
[1] = tested on: HB-EGF deficient type TG mouse; assay: Cylindrical platform test (impulsivity), ratio of mice remained on the platform; settings: for impulsivity (conclusion in words): HB-EGF deficient type TG mouse, 1 mg/kg i.p. once a day for 7 days; for ratio of the mice that were remained on the platform: HB-EGF deficient type mouse, 1 mg/kg into the abdominal cavity once a day for 7 days, column height 20 cm, diameter 10 cm, untreated TG only 20%, non-deficient 80% or more
Method: Further, the behavior of each mouse of the descending from the top of the platform to the floor was observed by classifying into the positive performing (=jumped down from the head) and the negative performing (=fall off from the tail).
(§1) As the therapeutic agent, three drugs of atomoxetine (1 mg/kg), nefiracetam (1 mg/kg), and SA4503 (1 mg/kg) were used independently to administer into the abdominal cavity once a day for 7 days in a row. As a control of the therapeutic agent, saline was administered into the abdominal cavity once a day for 7 days in a row.
In the mouse in which HB-EGF is not deficient, 80% or more of the mice were remained on the platform. On the other hand, in the HB-EGF deficient type mouse, only 20% of the mice were remained on the platform. However, in the case of administering atomoxetine to the HB-EGF deficient type mouse, 50% or more of the mice were remained on the platform. Further, in the case of administering nefiracetam to the HB-EGF deficient type mouse, 70% or more of the mice were remained on the platform.

[2] = tested on: HB-EGF deficient type TG mouse; assay: Marble-burying behavior test (obsessive-compulsive disorder related anxiety-like behavior); settings: 1 mg/kg i.p. once a day for 7 days; for number of the marbles that were buried: 25 marbles, 30 minutes, saline group: large, FIG. 17
Method: The marble-burying behavior test was carried out in accordance with the following processes. First, in a cage in which bedding was carpeted in around 5 cm depth, 25 blue-colored marbles with 17 mm were equally arranged, and the marble-burying behavior of each mouse were measured for 30 minutes. After a lapse of 30 minutes, when observed from straight above, the marbles those were buried two-thirds or more thereof with bedding were counted. Further, the acting amount of burying marbles was determined by SCANET. In the marble-burying behavior test, the more the number of marbles that buried after the test, the more the anxiety-like behavior enhanced.
as §1

[3] = tested on: HB-EGF deficient type TG mouse; assay: Nest-building test (social behavior, interest and consideration for the surrounding environment); settings: 1 mg/kg i.p. once a day for 7 days; for state of the nest: collecting the cotton in one place and making the nest: FIG. 16(a); for rating on 5-point scale for the state of the nest: score criteria 1-5 (5 = almost perfect nest), FIG. 16(b); for amount of the cotton that was not used for the nest-building: Nestlet 2.5 g provided, FIG. 16(c)
Method: The nest-building test was carried out in accordance with the following processes. First, from one hour before the darkness period (19:00) of the light and darkness cycle (light period 8:00 to 20:00/darkness period 20:00 to 8:00), each mouse was reared alone in a new cage, and provided with Nestlet (2.5 g) that is a material for the nest-building. During the darkness period 20:00 to 8:00, each mouse acted freely, in the next morning the nest shape that was made by each mouse was scored on 5-point scale, and the unused Nestlet amount was measured. The score was determined by the following criteria.
1: 90% of the Nestlet was unused.
2: the Nestlet was slightly used, however, 50 to 90% of the Nestlet was left unused.
3: 50 to 90% of the Nestlet was torn off finely, and the shape was not maintained as the nest.
5: 90% or more of the Nestlet was torn off finely, and used as a material of the nest, the nest was dug into a crater-like shape, and the (almost) perfect nest that buries the whole body of the mouse when viewed from the side was confirmed.
as §1

SMILES: CNCC[C@@H](Oc1ccccc1C)c1ccccc1 [atomoxetine]
- impulsivity (conclusion in words) [1]: the impulsivity was suppressed
- ratio of the mice that were remained on the platform [1]: ≥ 50%
- number of the marbles that were buried [2]: the same level as that of the HB-EGF deficient type TG mouse into which saline had been administered
- state of the nest: collecting the cotton in one place and making the nest [3]: could not collect the cotton in one place and could not make the nest
- rating on 5-point scale for the state of the nest [3]: ≤ 3

SMILES: Cc1cccc(C)c1NC(=O)CN1CCCC1=O [nefiracetam]
- impulsivity (conclusion in words) [1]: the impulsivity was suppressed
- ratio of the mice that were remained on the platform [1]: ≥ 70%
- anxiety-like behavior related to obsessive-compulsive disorder (conclusion in words) [2]: the anxiety-like behavior related to obsessive-compulsive disorder was decreased
- number of the marbles that were buried [2]: small
- social behavior, interest and consideration for the surrounding environment (conclusion in words) [3]: improved the social behavior, and the interest and consideration for the surrounding environment
- state of the nest: collecting the cotton in one place and making the nest [3]: could collect the cotton in one place and could make the nest
- amount of the cotton that was not used for the nest-building [3]: around 0.1 g
- rating on 5-point scale for the state of the nest [3]: 5

SMILES: COc1ccc(CCN2CCN(CCCc3ccccc3)CC2)cc1OC [SA4503]
- number of the marbles that were buried [2]: the same level as that of the HB-EGF deficient type TG mouse into which saline had been administered
- social behavior, interest and consideration for the surrounding environment (conclusion in words) [3]: improved the social behavior, and the interest and consideration for the surrounding environment
- state of the nest: collecting the cotton in one place and making the nest [3]: could collect the cotton in one place and could make the nest
- amount of the cotton that was not used for the nest-building [3]: around 0.1 g
- rating on 5-point scale for the state of the nest [3]: 5
